According to PubChem BioAssay AID248 (DTP/NCI, 2004):
“And” between values parts separate entries of the source, which are not always exact repeats. Equal values may be shown once. Inconclusive results and toxic doses are left out. No stated cut-off is given here; in the data, active means T/C of 150% or more; inactive means T/C below 125%. Square brackets hold non-standard residues; d marks the D form. Peptide text beside a SMILES is read from it. * marks the point of attachment. ξ: configuration not given here. Cbz = O=C(OCc1ccccc1)*; ξNva = CCCC(N)C(=O)O

Tested on: L1210 leukemia ip in BDF1 mice, survival T/C
Assay: NCI In Vivo Anticancer Drug Screen. Data for tumor model L1210 Leukemia (intraperitoneal) in B6D2F1 (BDF1) mice
Conditions: endpoint: mean survival time, higher = longer survival
Method in brief: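 Tumor was transplanted into mice, which were then dosed with test compound or vehicle alone. Survival was recorded for each group, and the treated figure was expressed relative to the control figure.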

[1] = dose: 100.0 mg/kg/injection, schedule: Q04DX003 (ip), vehicle: saline with Tween-80
[2] = dose: 200.0 mg/kg/injection, schedule: Q04DX003 (ip), vehicle: saline with Tween-80
[3] = dose: 400.0 mg/kg/injection, schedule: Q04DX003 (ip), vehicle: saline with Tween-80
[4] = dose: 100.0 mg/kg/injection, schedule: Q04DX002 (ip), vehicle: Klucel (hydroxypropylcellulose) (HPC)
[5] = dose: 200.0 mg/kg/injection, schedule: Q04DX002 (ip), vehicle: Klucel (hydroxypropylcellulose) (HPC)
[6] = dose: 400.0 mg/kg/injection, schedule: Q04DX002 (ip), vehicle: Klucel (hydroxypropylcellulose) (HPC)
[7] = dose: 12.5 mg/kg/injection, schedule: Q01DX009 (ip), vehicle: saline with Tween-80
[8] = dose: 25.0 mg/kg/injection, schedule: Q01DX009 (ip), vehicle: saline with Tween-80
[9] = dose: 100.0 mg/kg/injection, schedule: Q04DX003 (ip), vehicle: saline
[10] = dose: 200.0 mg/kg/injection, schedule: Q04DX003 (ip), vehicle: saline
[11] = dose: 100.0 mg/kg/injection, schedule: Q01DX001 (ip), vehicle: saline with Tween-80
[12] = dose: 200.0 mg/kg/injection, schedule: Q01DX001 (ip), vehicle: saline with Tween-80
[13] = dose: 400.0 mg/kg/injection, schedule: Q01DX001 (ip), vehicle: saline with Tween-80
[14] = dose: 100.0 mg/kg/injection, schedule: Q01DX009 (ip), vehicle: Klucel (hydroxypropylcellulose) (HPC)
[15] = dose: 200.0 mg/kg/injection, schedule: Q01DX009 (ip), vehicle: Klucel (hydroxypropylcellulose) (HPC)
[16] = dose: 100.0 mg/kg/injection, schedule: Q04DX002 (ip), vehicle: saline with Tween-80
[17] = dose: 200.0 mg/kg/injection, schedule: Q04DX002 (ip), vehicle: saline with Tween-80
[18] = dose: 400.0 mg/kg/injection, schedule: Q04DX002 (ip), vehicle: saline with Tween-80
[19] = dose: 400.0 mg/kg/injection, schedule: Q01DX009 (ip), vehicle: Klucel (hydroxypropylcellulose) (HPC)
[20] = dose: 100.0 mg/kg/injection, schedule: Q04DX003 (ip), vehicle: Klucel (hydroxypropylcellulose) (HPC)
[21] = dose: 200.0 mg/kg/injection, schedule: Q04DX003 (ip), vehicle: Klucel (hydroxypropylcellulose) (HPC)
[22] = dose: 400.0 mg/kg/injection, schedule: Q04DX003 (ip), vehicle: Klucel (hydroxypropylcellulose) (HPC)
[23] = dose: 100.0 mg/kg/injection, schedule: Q01DX009 (ip), vehicle: saline with Tween-80
[24] = dose: 200.0 mg/kg/injection, schedule: Q01DX009 (ip), vehicle: saline with Tween-80
[25] = dose: 400.0 mg/kg/injection, schedule: Q01DX009 (ip), vehicle: saline with Tween-80

Measured: T/C

CCCCCCCCNP(=S)(NCCCCCCCC)NCCCCCCCC
inactive: dose: 50.0 mg/kg/injection, schedule: Q01DX001 (ip), vehicle: other 105 % of control | dose: 100.0 mg/kg/injection, schedule: Q01DX001 (ip), vehicle: other 96 % of control | dose: 200.0 mg/kg/injection, schedule: Q01DX001 (ip), vehicle: other 96 % of control | dose: 400.0 mg/kg/injection, schedule: Q01DX001 (ip), vehicle: other 94 % of control

CCCCCCCCCCCSCCCCCCCCCCC
inactive: [1] 113 % of control | [2] 94 % of control | [3] 91 % of control

OC1CC2(c3ccccc3)OC1(c1ccccc1)c1ccccc12 (configuration not stated)
inactive: [4] 112 % of control | [5] 101 % of control | [6] 115 % of control

CC(=O)c1c(O)c(Br)c(C)oc1=O (tested in a mixture with another compound)
inactive: dose: 6.25 mg/kg/injection, schedule: Q01DX009 (ip), vehicle: saline with Tween-80 89 % of control | [7] 100 % of control | [8] 93 % of control

CN(C)CCCN=Cc1ccccc1O.CN(C)CCCN=Cc1ccccc1O.[Ni+2]
inactive: dose: 6.25 mg/kg/injection, schedule: Q04DX003 (ip), vehicle: saline with Tween-80 100 % of control | dose: 12.5 mg/kg/injection, schedule: Q04DX003 (ip), vehicle: saline with Tween-80 94 % of control | dose: 25.0 mg/kg/injection, schedule: Q04DX003 (ip), vehicle: saline with Tween-80 101 % of control

CCCNC(=O)/C=C/C(=O)NCCC
inactive: [9] 100 % of control | [10] 100 % of control | dose: 400.0 mg/kg/injection, schedule: Q04DX003 (ip), vehicle: saline 100 % of control

O=C(C=C(C(F)(F)F)C(F)(F)F)c1cccc(C(F)(F)F)c1
inactive: [7] 102 % of control | [8] 95 % of control | [1] 89 % of control

O=[N+]([O-])c1ccc(/C=C/c2ccccc2)c(Cl)c1
inactive: [11] 95 % of control | [12] 102 % of control | [13] 95 % of control

c1ccc2sc(SSN3CCOCC3)nc2c1
inactive: dose: 50.0 mg/kg/injection, schedule: Q01DX009 (ip), vehicle: Klucel (hydroxypropylcellulose) (HPC) 97 % of control | [14] 113 % of control | [9] 101 % of control | [15] 91 % of control | [10] 92 % of control

CN1C(=O)OC2C3NC(=O)OC3C(O)C(O)C21 (configuration not stated)
inactive: dose: 50.0 mg/kg/injection, schedule: Q01DX001 (ip), vehicle: carboxymethylcellulose (CMC) 109 % of control | dose: 100.0 mg/kg/injection, schedule: Q01DX001 (ip), vehicle: carboxymethylcellulose (CMC) 109 % of control | dose: 200.0 mg/kg/injection, schedule: Q01DX001 (ip), vehicle: carboxymethylcellulose (CMC) 107 % of control | dose: 400.0 mg/kg/injection, schedule: Q01DX001 (ip), vehicle: carboxymethylcellulose (CMC) 102 % of control

Cc1c2ccccc2[n+](C)c2ccc3ccccc3c12
inactive: dose: 75.0 mg/kg/injection, schedule: Q01DX001 (ip), vehicle: carboxymethylcellulose (CMC) 94 % of control | dose: 150.0 mg/kg/injection, schedule: Q01DX001 (ip), vehicle: carboxymethylcellulose (CMC) 94 % of control | dose: 300.0 mg/kg/injection, schedule: Q01DX001 (ip), vehicle: carboxymethylcellulose (CMC) 96 % of control

N#CC(Cl)(Cl)C(N)=O
inactive: dose: 12.5 mg/kg/injection, schedule: Q04DX002 (ip), vehicle: saline 88 % of control

NC(=O)COc1c(Cl)cc(Cl)cc1Cl
inactive: [16] 103 % of control | [17] 103 % of control | [18] 100 % of control

BrCc1cccc(C[P+](c2ccccc2)(c2ccccc2)c2ccccc2)c1
inactive: dose: 5.0 mg/kg/injection, schedule: Q01DX001 (ip), vehicle: saline 112 % of control | dose: 10.0 mg/kg/injection, schedule: Q01DX001 (ip), vehicle: saline 114 % of control | dose: 20.0 mg/kg/injection, schedule: Q01DX001 (ip), vehicle: saline 114 % of control | dose: 50.0 mg/kg/injection, schedule: Q01DX001 (ip), vehicle: saline 110 % of control

COC1OC2COC(c3ccccc3)OC2C(NC(C)=O)C1O (configuration not stated)
inactive: [4] 101 % of control | [5] 111 % of control | [6] 105 % of control

CN(CCC[N+](C)(C)C)C(=O)C(c1ccccc1)c1ccccc1
inactive: [9] 100 % of control

Nc1ccccc1Sc1c(N)cc2c3c(cccc13)C(=O)NC2=O
inactive: [14] 90 % of control | [15] 90 % of control | [19] 94 % of control

O=c1[nH]nc(N2CCOCC2)c(=O)[nH]1
inactive: dose: 100.0 mg/kg/injection, schedule: Q01DX001 (ip), vehicle: saline 104 % of control | dose: 200.0 mg/kg/injection, schedule: Q01DX001 (ip), vehicle: saline 104 % of control | dose: 400.0 mg/kg/injection, schedule: Q01DX001 (ip), vehicle: saline 96 % of control

COc1ccc(C(CC(=O)c2ccc3c(c2)OCO3)C(=O)O)cc1OC (configuration not stated)
inactive: [14] 93 % of control | [20] 100 % of control | [15] 98 % of control | [21] 96 % of control | [19] 93 % of control | [22] 93 % of control

COc1ncnc2c1ncn2C1CC(CO)C(O)C1O (configuration not stated)
inactive: dose: 25.0 mg/kg/injection, schedule: Q01DX009 (ip), vehicle: saline 102 % of control | dose: 50.0 mg/kg/injection, schedule: Q01DX009 (ip), vehicle: saline 95 % of control | dose: 100.0 mg/kg/injection, schedule: Q01DX009 (ip), vehicle: saline 91 % of control

O=[N+]([O-])c1ccc(Oc2cccc(C(F)(F)F)c2)nc1
inactive: [14] 101 % of control | [20] 101 % of control | [15] 103 % of control | [21] 95 % of control | [19] 107 % of control | [22] 101 % of control

CCCCCCCCCCCCCC(=O)[O][Sn]([CH2]CCC)([CH2]CCC)[O]C(=O)CCCCCCCCCCCCC
inactive: dose: 0.78 mg/kg/injection, schedule: Q04DX003 (ip), vehicle: other 95 % of control | dose: 1.56 mg/kg/injection, schedule: Q04DX003 (ip), vehicle: other 98 % of control | dose: 3.13 mg/kg/injection, schedule: Q04DX003 (ip), vehicle: other 96 % of control | dose: 6.25 mg/kg/injection, schedule: Q04DX003 (ip), vehicle: other 109 % of control | dose: 12.5 mg/kg/injection, schedule: Q04DX003 (ip), vehicle: other 101 % of control

O=C(Nc1cccc([N+](=O)[O-])c1)Nc1cccc(C(F)(F)F)c1
inactive: [4] 101 % of control | [5] 99 % of control | [6] 96 % of control

COc1cc([N+](=O)[O-])ccc1NC(=O)N(C)C1CCCCC1
inactive: [11] 103 % of control | [23] 98 % of control and 91 % of control | [16] 99 % of control and 105 % of control | [12] 100 % of control | [24] 92 % of control and 96 % of control | [17] 94 % of control and 86 % of control | [13] 94 % of control | [25] 94 % of control and 98 % of control | [18] 94 % of control and 89 % of control

O=C1CCCNc2ccccc21
inactive: [23] 98 % of control | [20] 93 % of control | [24] 110 % of control | [21] 106 % of control | [25] 93 % of control | [22] 98 % of control

CCCC(NC(=O)CNC(=O)CNC(=O)OCc1ccccc1)C(=O)OC (stereo not drawn) (Cbz-Gly-Gly-[ξNva]-OMe)
inactive: [1] 98 % of control | [2] 97 % of control | [3] 103 % of control

COc1ccc(C(=O)N/N=C/c2cc(OC)ccc2O)cc1
inactive: [4] 110 % of control | [5] 104 % of control | [6] 100 % of control

Cc1cccc(Cl)c1NC(=O)N(Cc1ccccc1)Cc1ccccc1
inactive: [14] 100 % of control | [15] 105 % of control | [19] 97 % of control
